7 molecules from patent US20240239861A1, “GLUCAGON-RECEPTOR SELECTIVE POLYPEPTIDES AND METHODS OF USE THEREOF” (i2O Therapeutics, Inc., priority 2016, published 2024) can be followed below.

The target of one data set is human GLP-1R (Homo sapiens, UniProt P43220). As to the kind of experiment: Peptide-receptor mediated cAMP accumulation (LANCE Ultra cAMP) in CHO-K1 cells transfected with human GLP-1R. It counts as cell-based.
Another data set can be described thus: in vivo. Conditions: male, rat.
Another data set deals with human GCGR (Homo sapiens, UniProt P47871). The data set is described as follows: Peptide-receptor mediated cAMP accumulation (LANCE Ultra cAMP) in CHO-K1 cells transfected with human GCGR. Format: cell-based. Conditions: read-out: GluR pEC50 (converted). In general terms: cAMP levels reflect the balance of adenylyl cyclase and phosphodiesterase activity.
Where [1] appears, read: hGLP1 pEC50 (cAMP mean (n = 3): 11 point curve starting at 1 nM, Table 3).
Where [2] appears, read: Table 7, GLP-1R, read-out: GLP-1R pEC50 (converted).

Molecules are shown by their SMILES. Where two headings read alike, the source gives them in different places. *1 amine or outer side, *2 acyl side, *3 side chain or, on linkers, in order; H or OH if unused. Where a SMILES comes first, the peptide text is derived from it. Side-chain parts run from the residue outwards. [ ]: non-standard residue; d: D form. The star is where a group is joined. γGlu = O=C(O)[C@H](CCC(=O)[*:2])N[*:1]; Palmitoyl = CCCCCCCCCCCCCCCC(=O)*; Aib = CC(C)(N)C(=O)O

Sequence of human GLP-1R (P43220 24-463): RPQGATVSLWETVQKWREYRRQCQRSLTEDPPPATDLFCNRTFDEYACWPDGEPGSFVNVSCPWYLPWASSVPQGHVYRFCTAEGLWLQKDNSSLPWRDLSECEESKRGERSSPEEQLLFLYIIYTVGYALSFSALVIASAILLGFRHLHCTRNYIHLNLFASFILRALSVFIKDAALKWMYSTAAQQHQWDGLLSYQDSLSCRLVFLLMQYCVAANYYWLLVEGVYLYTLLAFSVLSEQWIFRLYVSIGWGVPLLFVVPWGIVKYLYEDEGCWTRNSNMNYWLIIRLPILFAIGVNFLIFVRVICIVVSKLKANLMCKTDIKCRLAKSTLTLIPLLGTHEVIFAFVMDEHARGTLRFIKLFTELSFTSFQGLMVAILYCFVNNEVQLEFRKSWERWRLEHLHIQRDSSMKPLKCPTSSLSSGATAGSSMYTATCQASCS
Sequence of human GCGR (P47871 26-477): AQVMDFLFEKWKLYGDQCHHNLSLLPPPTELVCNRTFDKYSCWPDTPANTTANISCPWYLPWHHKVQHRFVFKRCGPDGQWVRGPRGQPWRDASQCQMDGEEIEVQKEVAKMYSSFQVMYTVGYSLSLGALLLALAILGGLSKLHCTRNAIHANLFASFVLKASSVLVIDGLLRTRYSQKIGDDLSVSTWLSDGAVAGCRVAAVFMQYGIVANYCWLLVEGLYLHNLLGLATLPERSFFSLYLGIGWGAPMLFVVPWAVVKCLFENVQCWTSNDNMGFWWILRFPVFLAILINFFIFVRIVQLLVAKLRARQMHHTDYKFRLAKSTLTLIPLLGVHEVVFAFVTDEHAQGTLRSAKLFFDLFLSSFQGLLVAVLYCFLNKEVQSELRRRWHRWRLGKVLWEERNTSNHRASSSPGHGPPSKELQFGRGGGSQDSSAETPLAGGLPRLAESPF

At human GLP-1R (setting [1]), `CC(C)C[C@H](NC(=O)[C@H](Cc1ccc(O)cc1)NC(=O)[C@H](CCCCN)NC(=O)[C@H](CO)NC(=O)[C@H](Cc1ccc(O)cc1)NC(=O)[C@H](CC(=O)O)NC(=O)[C@H](CO)NC(=O)[C@@H](NC(=O)[C@H](Cc1ccccc1)NC(=O)[C@@H](NC(=O)CNC(=O)[C@H](Cc1c[nH]cn1)NC(=O)[C@H](CO)NC(=O)[C@@H](N)Cc1ccc(O)cc1)[C@@H](C)O)[C@@H](C)O)C(=O)N[C@@H](CC(=O)O)C(=O)NC(C)(C)C(=O)N[C@@H](CCCCN)C(=O)N[C@@H](CCCNC(=N)N)C(=O)N[C@@H](C)C(=O)N[C@@H](CCC(N)=O)C(=O)N[C@@H](CCC(=O)O)C(=O)N[C@@H](Cc1ccccc1)C(=O)N[C@H](C(=O)NC(C)(C)C(=O)N[C@@H](Cc1c[nH]c2ccccc12)C(=O)N[C@@H](CC(C)C)C(=O)N[C@@H](CCC(=O)O)C(=O)N[C@@H](CC(=O)O)C(=O)N[C@@H](CCC(=O)O)C(=O)N1CCC[C@H]1C(=O)N[C@@H](CO)C(=O)N[C@@H](CO)C(=O)NCC(=O)N[C@@H](C)C(=O)N1CCC[C@H]1C(=O)N1CCC[C@H]1C(=O)N1CCC[C@H]1C(=O)N[C@@H](CO)C(N)=O)C(C)C` [Compound A8] (H-YSHGTFTSDYSKYLD[Aib]KRAQEFV[Aib]WLEDEPSSGAPPPS-NH2; N-terminus assumed) showed an EC50 of over 1 nM. For the same molecule, the clearance in the data set “in vivo” stood at 17 mL/min/kg.

Consider `CC(C)C[C@H](NC(=O)[C@H](Cc1ccc(O)cc1)NC(=O)[C@H](CCCCN)NC(=O)[C@H](CO)NC(=O)[C@H](Cc1ccc(O)cc1)NC(=O)[C@H](CC(=O)O)NC(=O)[C@H](CO)NC(=O)[C@@H](NC(=O)[C@H](Cc1ccccc1)NC(=O)[C@@H](NC(=O)CNC(=O)[C@H](Cc1c[nH]cn1)NC(=O)[C@H](CO)NC(=O)[C@@H](N)Cc1ccc(O)cc1)[C@@H](C)O)[C@@H](C)O)C(=O)N[C@@H](CC(=O)O)C(=O)NC(C)(C)C(=O)N[C@@H](CCCCN)C(=O)N[C@@H](CCCNC(=N)N)C(=O)N[C@@H](C)C(=O)N[C@@H](CCC(N)=O)C(=O)N[C@@H](CCC(=O)O)C(=O)N[C@@H](Cc1ccccc1)C(=O)N[C@H](C(=O)NC(C)(C)C(=O)N[C@@H](Cc1c[nH]c2ccccc12)C(=O)N[C@@H](CC(C)C)C(=O)N[C@@H](CCC(=O)O)C(=O)N[C@@H](CC(=O)O)C(=O)N[C@@H](CCC(=O)O)C(=O)N1CCC[C@H]1C(=O)N[C@@H](CO)C(=O)N[C@@H](CO)C(=O)NCC(=O)N[C@@H](CCCCN)C(=O)N1CCC[C@H]1C(=O)N1CCC[C@H]1C(=O)N1CCC[C@H]1C(=O)N[C@@H](CO)C(=O)O)C(C)C` [Compound A20] (H-YSHGTFTSDYSKYLD[Aib]KRAQEFV[Aib]WLEDEPSSGKPPPS-OH; N-terminus assumed), for which the EC50 on human GLP-1R (setting [1]) was over 1 nM. Moreover, the clearance in the data set “in vivo” amounted to 15 mL/min/kg.

In the case of `CC(C)C[C@H](NC(=O)[C@H](Cc1ccc(O)cc1)NC(=O)[C@H](CCCCN)NC(=O)[C@H](CO)NC(=O)[C@H](Cc1ccc(O)cc1)NC(=O)[C@H](CC(=O)O)NC(=O)[C@H](CO)NC(=O)[C@@H](NC(=O)[C@H](Cc1ccccc1)NC(=O)[C@@H](NC(=O)CNC(=O)[C@H](Cc1c[nH]cn1)NC(=O)[C@H](CO)NC(=O)[C@@H](N)Cc1ccc(O)cc1)[C@@H](C)O)[C@@H](C)O)C(=O)N[C@@H](CC(=O)O)C(=O)NC(C)(C)C(=O)N[C@@H](CCCCN)C(=O)N[C@@H](CCCNC(=N)N)C(=O)N[C@@H](C)C(=O)N[C@@H](CCC(N)=O)C(=O)N[C@@H](CCC(=O)O)C(=O)N[C@@H](Cc1ccccc1)C(=O)N[C@H](C(=O)NC(C)(C)C(=O)N[C@@H](Cc1c[nH]c2ccccc12)C(=O)N[C@@H](CC(C)C)C(=O)N[C@@H](CCC(=O)O)C(=O)N[C@@H](CC(=O)O)C(=O)N[C@@H](CCC(=O)O)C(=O)NCC(=O)N1CCC[C@H]1C(=O)N[C@@H](CO)C(=O)N[C@@H](CO)C(=O)NCC(=O)N[C@@H](C)C(=O)N1CCC[C@H]1C(=O)N1CCC[C@H]1C(=O)N1CCC[C@H]1C(=O)N[C@@H](CO)C(=O)O)C(C)C` [Compound A28] (H-YSHGTFTSDYSKYLD[Aib]KRAQEFV[Aib]WLEDEGPSSGAPPPS-OH), the EC50 at human GLP-1R (setting [1]) was over 1 nM. The molecule further registered a clearance in “in vivo” of 34.7 mL/min/kg.

`CC(C)C[C@H](NC(=O)[C@H](Cc1c[nH]c2ccccc12)NC(=O)[C@H](CCCCN)NC(=O)[C@H](CO)NC(=O)[C@H](Cc1ccc(O)cc1)NC(=O)[C@H](CC(=O)O)NC(=O)[C@H](CO)NC(=O)[C@@H](NC(=O)[C@H](Cc1ccccc1)NC(=O)[C@@H](NC(=O)CNC(=O)[C@H](Cc1c[nH]cn1)NC(=O)[C@@H](NC(=O)[C@@H](N)Cc1ccc(O)cc1)[C@@H](C)O)[C@@H](C)O)[C@@H](C)O)C(=O)N[C@@H](CC(=O)O)C(=O)NC(C)(C)C(=O)N[C@@H](C)C(=O)N[C@@H](CCCNC(=N)N)C(=O)N[C@@H](C)C(=O)N[C@@H](CCC(N)=O)C(=O)N[C@@H](CCC(=O)O)C(=O)N[C@@H](Cc1ccccc1)C(=O)N[C@H](C(=O)NC(C)(C)C(=O)N[C@@H](Cc1c[nH]c2ccccc12)C(=O)N[C@@H](CC(C)C)C(=O)N[C@@H](CCC(=O)O)C(=O)N[C@@H](CC(=O)O)C(=O)N[C@@H](CCC(=O)O)C(=O)N1CCC[C@H]1C(=O)N[C@@H](CO)C(=O)N[C@@H](CO)C(=O)NCC(=O)N[C@@H](C)C(=O)N1CCC[C@H]1C(=O)N1CCC[C@H]1C(=O)N1CCC[C@H]1C(=O)N[C@@H](CO)C(=O)O)C(C)C` [Compound A35] (H-YTHGTFTSDYSKWLD[Aib]ARAQEFV[Aib]WLEDEPSSGAPPPS-OH; N-terminus assumed) came in with an EC50 at human GLP-1R (setting [1]) of over 1 nM. In the data set “in vivo”, this molecule returned a clearance of 30.1 mL/min/kg.

In turn, `CC(C)C[C@H](NC(=O)[C@H](Cc1ccc(O)cc1)NC(=O)[C@H](CCCCN)NC(=O)[C@H](CO)NC(=O)[C@H](Cc1ccc(O)cc1)NC(=O)[C@H](CC(=O)O)NC(=O)[C@H](CO)NC(=O)[C@@H](NC(=O)[C@H](Cc1ccccc1)NC(=O)[C@@H](NC(=O)CNC(=O)[C@H](Cc1c[nH]cn1)NC(=O)[C@H](CO)NC(=O)[C@@H](N)Cc1ccc(O)cc1)[C@@H](C)O)[C@@H](C)O)C(=O)N[C@@H](CC(=O)O)C(=O)NC(C)(C)C(=O)N[C@@H](CCCCN)C(=O)N[C@@H](CCCNC(=N)N)C(=O)N[C@@H](C)C(=O)N[C@@H](CCC(N)=O)C(=O)N[C@@H](CCC(=O)O)C(=O)N[C@@H](Cc1ccccc1)C(=O)N[C@H](C(=O)NC(C)(C)C(=O)N[C@@H](Cc1c[nH]c2ccccc12)C(=O)N[C@@H](CC(C)C)C(=O)N[C@@H](CCC(=O)O)C(=O)N[C@@H](CC(=O)O)C(=O)N[C@@H](CCC(=O)O)C(=O)N[C@@H](CCCCN)C(=O)N[C@@H](CCCNC(=N)N)C(=O)N[C@@H](CC(N)=O)C(=O)N[C@@H](CCCCN)C(=O)N[C@@H](CC(N)=O)C(=O)N1CCC[C@H]1C(=O)N1CCC[C@H]1C(=O)N1CCC[C@H]1C(=O)N[C@@H](CO)C(=O)O)C(C)C` [Compound A48] (H-YSHGTFTSDYSKYLD[Aib]KRAQEFV[Aib]WLEDEKRNKNPPPS-OH; N-terminus assumed) registered an EC50 at human GLP-1R (setting [1]) of over 1 nM. The molecule also displayed a clearance in the data set “in vivo” of 37 mL/min/kg.

In the case of `CCCCCCCCCCCCCCCC(=O)N[C@@H](CCC(=O)NCCCC[C@H](NC(=O)[C@H](CC(=O)O)NC(=O)[C@H](CC(C)C)NC(=O)[C@H](Cc1ccc(O)cc1)NC(=O)[C@H](CCCCN)NC(=O)[C@H](CO)NC(=O)[C@H](Cc1ccc(O)cc1)NC(=O)[C@H](CC(=O)O)NC(=O)[C@H](CO)NC(=O)[C@@H](NC(=O)[C@H](Cc1ccccc1)NC(=O)[C@@H](NC(=O)CNC(=O)[C@H](Cc1c[nH]cn1)NC(=O)[C@H](CO)NC(=O)[C@@H](N)Cc1ccc(O)cc1)[C@@H](C)O)[C@@H](C)O)C(=O)N[C@@H](C)C(=O)N[C@@H](CCCNC(=N)N)C(=O)N[C@@H](C)C(=O)N[C@@H](CCC(N)=O)C(=O)N[C@@H](CCC(=O)O)C(=O)N[C@@H](Cc1ccccc1)C(=O)N[C@H](C(=O)N[C@@H](CCCCN)C(=O)N[C@@H](Cc1c[nH]c2ccccc12)C(=O)N[C@@H](CC(C)C)C(=O)N[C@@H](CCC(=O)O)C(=O)N[C@@H](CC(=O)O)C(=O)N[C@@H](CCC(=O)O)C(=O)N1CCC[C@H]1C(=O)N[C@@H](CO)C(=O)N[C@@H](CO)C(=O)NCC(=O)N[C@@H](C)C(=O)N1CCC[C@H]1C(=O)N1CCC[C@H]1C(=O)N1CCC[C@H]1C(=O)N[C@@H](CO)C(N)=O)C(C)C)C(=O)O` [Compound B43], the EC50 at human GCGR is 0.00794 nM; on human GLP-1R (setting [2]), over 1000 nM.

Take `CCCCCCCCCCCCCCCC(=O)N[C@@H](CCC(=O)NCCCC[C@H](NC(=O)[C@H](CC(=O)O)NC(=O)[C@H](CO)NC(=O)[C@@H](NC(=O)[C@H](Cc1ccccc1)NC(=O)[C@@H](NC(=O)CNC(=O)[C@H](Cc1c[nH]cn1)NC(=O)[C@H](CO)NC(=O)[C@@H](N)Cc1ccc(O)cc1)[C@@H](C)O)[C@@H](C)O)C(=O)N[C@@H](CO)C(=O)N[C@@H](CCCCN)C(=O)N[C@@H](Cc1ccc(O)cc1)C(=O)N[C@@H](CC(C)C)C(=O)N[C@@H](CC(=O)O)C(=O)N[C@@H](CO)C(=O)N[C@@H](C)C(=O)N[C@@H](CCCNC(=N)N)C(=O)N[C@@H](C)C(=O)N[C@@H](CCC(N)=O)C(=O)N[C@@H](CCC(=O)O)C(=O)N[C@@H](Cc1ccccc1)C(=O)N[C@H](C(=O)N[C@@H](CCCCN)C(=O)N[C@@H](Cc1c[nH]c2ccccc12)C(=O)N[C@@H](CC(C)C)C(=O)N[C@@H](CCC(=O)O)C(=O)N[C@@H](CC(=O)O)C(=O)N[C@@H](CCC(=O)O)C(=O)N1CCC[C@H]1C(=O)N[C@@H](CO)C(=O)N[C@@H](CO)C(=O)NCC(=O)N[C@@H](C)C(=O)N1CCC[C@H]1C(=O)N1CCC[C@H]1C(=O)N1CCC[C@H]1C(=O)N[C@@H](CO)C(N)=O)C(C)C)C(=O)O` [Compound B44] (H-YSHGTFTSDK([γGlu-Palmitoyl])SKYLDSARAQEFVKWLEDEPSSGAPPPS-NH2): the EC50 at human GCGR was 0.00126 nM; on human GLP-1R (setting [2]), 63.1 nM.

By clearance is commonly meant the volume of plasma or blood freed of the substance per unit of time. Low readings indicate a low capacity for elimination, high ones a high capacity for elimination.
